The record followed here is patent publication US20230012368A1 (Hoffmann-La Roche Inc., priority 2018, published 2023).

Where a name gives a salt, the structure may show the parent alone. Read-outs that look alike come from different tables or passages of the source.

The subject of the experiment is Acinetobacter baumannii ATCC 17978. As to the kind of experiment: Antimicrobial susceptibility testing: 90% growth inhibitory concentration (IC90) determination. Format: cell-based. The settings on record: 90% growth inhibitory concentration, Acinetobacter baumannii ATCC17978, Iso-Sensitest broth, OD 600 nm over 16h, read-out: ATCC17978 IC90. Summed up: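 Compounds serially twofold diluted (e.g. 50 to 0.097 μM final) in Iso-Sensitest broth, inoculated at ~5×10^(5) CFU/ml, incubated at 35±2° C. OD600 read every 20 minutes over 16h. IC90 taken as concentration inhibiting 90% of growth during logarithmic phase.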

Setting [1] is: Acinetobacter baumannii, ATCC17978, 16 h.

As a reminder, the IC90 is the concentration at which the effect reaches the 90% level. Consider `CCc1cc(Nc2nccn3c(-c4ccc(OC(F)F)c(F)c4F)cnc23)ccc1C(=O)NCC1CCN(CC2CNC2)CC1` [Example 547, N-((1-(azetidin-3-ylmethyl)piperidin-4-yl)methyl)-4-((3-(4-(difluoromethoxy)-2,3-difluorophenyl)imidazo[1,2-a]pyrazin-8-yl)amino)-2-ethylbenzamide formate], for which the IC90 under setting [1] was 160 nM. `CCc1cc(Nc2nccn3c(-c4ccc(OC)c(F)c4F)cnc23)ccc1C(=O)NCCNC(=O)N1CCN[C@H](C(=O)O)C1` [Example 350, (2S)-4-[2-[[4-[[3-(2,3-difluoro-4-methoxyphenyl)imidazo[1,2-a]pyrazin-8-yl]amino]-2-ethylbenzoyl]amino]ethylcar-bamoyl]piperazine-2-carboxylic acid;formic acid]: the IC90 under setting [1] was 1200 nM.

On to `N#CCOc1ccc(-c2cnc3c(Nc4ccc(C(=O)NCCCCCN)c(Cl)c4)nccn23)c(F)c1F` [Example 496, N-(5-aminopentyl)-2-chloro-4-[[3-[4-(cyanomethoxy)-2,3-difluorophenyl]imidazo[1,2-a]pyrazin-8-yl]amino]benzamide], for which the 90% effect concentration (IC90) under setting [1] came out at 23 nM. Same read-out and setting: under `Cc1cc(Nc2nccn3c(-c4ccc(OC(F)F)cc4)cnc23)ccc1C(=O)NCCSc1nnnn1C` [Example 176, 4-[[3-[4-(difluoromethoxy)phenyl]im-idazo[1,2-a]pyrazin-8-yl]amino]-2-methyl-N-[2-(1-methyltetrazol-5-yl)sulfanylethyl]benzamide] stands 520 nM; under `CCc1cc(Nc2nccn3c(-c4ccc(OCC#N)c(F)c4F)cnc23)ccc1C(=O)NCCNC(=O)CCN` [Example 137, N-[2-(3-aminopropanoyl-amino)ethyl]-4-[[3-[4-(cyanomethoxy)-2,3-difluoro-phenyl]imidazo[1,2-a]pyrazin-8-yl]amino]-2-ethyl-benzamide formate], 70 nM.

For the compound `COc1ccc(-c2cnc3c(Nc4ccc(C(=O)N(C)CCCN)c(C)c4)nccn23)cc1` [Example 34, N-(3-aminopropyl)-4-((3-(4-methoxyphenyl)imidazo [1,2-a]pyrazin-8-yl)amino)-N,2-dimethylbenzamide hydrochloride], the IC90 under setting [1] was determined as 1100 nM. Still for that read-out and setting: the result for `C=CCNC(=O)c1ccc(Nc2nccn3c(-c4ccc(OC)c(F)c4F)cnc23)cc1CC` [Example 329, 4-[[3-(2,3-difluoro-4-methoxyphenyl)imidazo[1,2-a]pyrazin-8-yl]amino]-2-ethyl-N-prop-2-enylbenzamide] reads 140 nM; that for `C/C=C/c1cc(Nc2nccn3c(-c4ccc(OC(F)F)cc4)cnc23)ccc1C(=O)NC` [Example 151, (E)-4-((3-(4-(Difluoromethoxy)phenyl)imidazo[1,2-a]pyrazin-8-yl)amino)-N-methyl-2-(prop-1-en-1-yl)benzamide], 2000 nM; that for `COc1ccc(-c2cnc3c(Nc4ccc(C(=O)NCCNC(=O)[C@@H]5C[C@@H](O)CN5)c(C)c4)nccn23)c(F)c1F` [Example 363, (2S,4R)-N-[2-[[4-[[3-(2,3-difluoro-4-methoxyphenyl)imidazo[1,2-a]pyrazin-8-yl]amino]-2-methylbenzoyl]amino]ethyl]-4-hydroxypyrrolidine-2-carboxamide], 90 nM. Same read-out and setting: the result for `N#CCOc1ccc(-c2cnc3c(Nc4ccc(C(=O)NCCCc5ccncc5)c(Cl)c4)nccn23)c(F)c1F` [Example 76, 2-chloro-4-[[3-[4-(cyanomethoxy)-2,3-difluoro-phenyl]imidazo[l,2-a]pyrazin-8-yl]amino]-N-[3-(4-pyridyl)propyl] benzamide; 2,2,2-trifluoroacetic acid] reads 170 nM; that for `COc1ccc(-c2cnc3c(Nc4ccc(C(=O)NCCNC(=O)N5CCN[C@@H](C(=O)O)C5)c(C)c4)nccn23)c(F)c1F` [Example 352, (2R)-4-[2-[[4-[[3-(2,3-difluoro-4-methoxyphenyl)imidazo[1,2-a]pyrazin-8-yl]amino]-2-methylbenzoyl]amino]ethyl-carbamoyl]piperazine-2-carboxylic acid;formic acid], 1300 nM.

On to `CCc1cc(Nc2nccn3c(-c4ccc(OC)c(F)c4F)cnc23)ccc1C(=O)NCC(=O)N1CCN[C@H](CO)C1` [Example 464, 4-[[3-(2,3-difluoro-4-methoxy-phenyl)imidazo[1,2-a]pyrazin-8-yl]amino]-2-ethyl-N-[2-[(3S)-3-(hydroxymethyl)piperazin-1-yl]-2-oxo-ethyl]benzamide], for which, under setting [1], the IC90 was determined as 240 nM. On the same count and under the same terms, the result for `Cc1cc(Nc2nccn3c(-c4ccc(OC(F)F)cc4)cnc23)ccc1C(=O)N(C)CCC1CCN(CCC(=O)O)CC1` [Example 150, 3-(4-(2-(4-((3-(4-(difluoromethoxy)phenyl)imidazo[1,2-a]pyrazin-8-yl)amino)-N,2-dimethylbenzamido)ethyl)piperidin-1-yl)propanoic acid] reads 650 nM; that for `CCc1cc(Nc2nccn3c(-c4ccc(OC)c(F)c4F)cnc23)ccc1C(=O)NCCCNC(=O)[C@@H](N)CCNC(=N)N` [Example 367, N-[3-[[(2S)-2-amino-4-carbamimidamidobutanoyl]amino]propyl]-4-[[3-(2,3-difluoro-4-methoxyphenyl)imidazo[1,2-a]pyrazin-8-yl]amino]-2-ethylbenzamide;formic acid], 100 nM. Still for that read-out and setting: under `COc1ccc(-c2cnc3c(Nc4ccc5c(c4)CCCNC5=O)nccn23)cc1F` [Example 390, 7-[[3-(3-fluoro-4-methoxy-phenyl)imidazo[1,2-a]pyrazin-8-yl]amino]-2,3,4,5-tetrahydro-2-benzazepin-1-one hydrochloride] stands 220 nM. As to `CCc1cc(Nc2nccn3c(-c4ccc(OC(F)F)c(F)c4F)cnc23)ccc1C(=O)NC(CC)CCN` (stereo not drawn) [Example 317, N-(1-aminopentan-3-yl)-4-[[3-[4-(difluoromethoxy)-2,3-difluorophenyl]imidazo[1,2-a]pyrazin-8-yl]amino]-2-ethylbenzamide; hydrochloride], the IC90 turned out to be 2500 nM. As for `CNC(=O)c1ccc(Nc2nccn3c(-c4ccc(OC(F)F)cc4)cnc23)cc1I` [Example 91, 4-((3-(4-(difluoromethoxy)phenyl)imidazo[1,2-a]pyrazin-8-yl)amino)-2-iodo-N-methylbenzamide], the concentration for an effect of 90% (IC90) under setting [1] turned out to be 260 nM. Same read-out and setting: the result for `COc1ccc(-c2cnc3c(Nc4ccc(C(=O)N(C)C)cc4)nccn23)c(F)c1F` [Example 107, 4-[[3-(2,3-difluoro-4-methoxy-phenyl)imidazo[1,2-a]pyrazin-4-yl]amino]-N,N-dimethyl-benzamide] reads 120 nM; that for `CCc1cc(Nc2nccn3c(-c4ccc(OC(F)F)cc4)cnc23)ccc1C(=O)NCCN1CCNCC1` [Example 212, 4-[[3-[4-(difluoromethoxy)phenyl]im-idazo[1,2-a]pyrazin-8-yl]amino]-2-ethyl-N-(2-piperazin-1-ylethyl)benzamide;hydrochlo-ride], 640 nM. For `COc1ccc(-c2cnc3c(Nc4ccc(C(=O)NCCC5CCOCC5)c(C)c4)nccn23)cc1F` [Example 37, 4-[[3-(3-fluoro-4-methoxy-phenyl)imidazo[1,2-a]pyrazin-8-yl]amino]-2-methyl-N-(2-tetrahydropyran-4-ylethyl)benzamide; 2,2,2-trifluoroacetic acid], the IC90 is 240 nM. On to `Cc1cc(Nc2nccn3c(-c4ccc(Cl)cc4)cnc23)ccc1C(=O)NCCCCN` [Example 239, N-(4-aminobutyl)-4-[[3-(4-chlorophenyl)imidazo[1,2-a]pyrazin-8-yl]amino]-2-methylbenzamide; hydrochlo-ride], for which, under setting [1], the IC90 is 540 nM.
